Test results reported in the supplement of paper PMC10307832.

Columns and labels:
Assay in all cases: relative viability (nuclei count vs DMSO), 5 days (fraction); higher = more cells survive
[1] = tested on: NCI-H1734
Method in brief: (§1)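 Nuclei were stained with Hoechst during a one-step fixation (final 0.05% Triton X-100, 1% formaldehyde, 1 ug/ml Hoechst) carried out 5 days after dosing, then counted on 4× images. The cells, lung cancer lines in 1536-well plates, had been dosed by pin tool the day after seeding with one drug alone or a fixed anchor-drug dose plus five library-drug doses (not always all listed) in √10 steps. Relative viability is the nuclei count in treated wells divided by that in vehicle wells, and each value is the median of duplicate plates.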

[2] = tested on: NCI-H1793
Method in brief: as §1

[3] = tested on: NCI-H1975
Method in brief: as §1

[4] = tested on: NCI-H2023
Method in brief: as §1

[5] = tested on: NCI-H2085
Method in brief: as §1

[6] = tested on: NCI-H2342
Method in brief: as §1

[7] = tested on: NCI-H358
Method in brief: as §1

[8] = tested on: NCI-H441
Method in brief: as §1

[9] = tested on: NCI-H460
Method in brief: as §1

[10] = tested on: NCI-H838
Method in brief: as §1

[11] = tested on: SK-LU-1
Method in brief: as §1

Q: For Cc1sc2c(c1C)C(c1ccc(Cl)cc1)=N[C@@H](CC(=O)OC(C)(C)C)c1nnc(C)n1-2 [JQ1] + N=C(N)NC(=N)NCCc1ccccc1 [Phenformin] (partner 250 µM), which relative viability ([1]; first compound 0.04 µM) is on record?
A: Its relative viability is 0.326.

Q: And the relative viability ([1]; first compound 0.1265 µM)?
A: The relative viability was 0.312.

Q: And the relative viability ([1]; first compound 0.4 µM)?
A: Its relative viability is 0.336.

Q: And the relative viability ([1]; first compound 1.265 µM)?
A: Its relative viability is 0.251.

Q: And the relative viability ([1]; first compound 4 µM)?
A: The relative viability was 0.23.

Q: And the relative viability ([2]; first compound 0.04 µM)?
A: The relative viability was 0.315.

Q: What about the relative viability ([2]; first compound 0.1265 µM) of the same compound?
A: Its relative viability is 0.382.

Q: And the relative viability ([2]; first compound 0.4 µM)?
A: The relative viability was 0.35.

Q: And the relative viability ([2]; first compound 1.265 µM)?
A: Its relative viability is 0.274.

Q: And the relative viability ([2]; first compound 4 µM)?
A: Its relative viability is 0.378.

Q: And the relative viability ([3]; first compound 0.04 µM)?
A: Its relative viability is 0.41.

Q: What about the relative viability ([3]; first compound 0.1265 µM) of the same compound?
A: The relative viability was 0.31.

Q: And the relative viability ([3]; first compound 0.4 µM)?
A: Its relative viability is 0.381.

Q: What about the relative viability ([3]; first compound 1.265 µM) of the same compound?
A: The relative viability was 0.299.

Q: What about the relative viability ([3]; first compound 4 µM) of the same compound?
A: Its relative viability is 0.297.

Q: What about the relative viability ([4]; first compound 0.04 µM) of the same compound?
A: The relative viability was 0.399.

Q: And the relative viability ([4]; first compound 0.1265 µM)?
A: Its relative viability is 0.354.

Q: And the relative viability ([4]; first compound 0.4 µM)?
A: The relative viability was 0.307.

Q: And the relative viability ([4]; first compound 1.265 µM)?
A: The relative viability was 0.177.

Q: And the relative viability ([4]; first compound 4 µM)?
A: Its relative viability is 0.147.

Q: And the relative viability ([5]; first compound 0.04 µM)?
A: Its relative viability is 0.712.

Q: And the relative viability ([5]; first compound 0.1265 µM)?
A: Its relative viability is 0.611.

Q: And the relative viability ([5]; first compound 0.4 µM)?
A: The relative viability was 0.552.

Q: And the relative viability ([5]; first compound 1.265 µM)?
A: The relative viability was 0.393.

Q: And the relative viability ([5]; first compound 4 µM)?
A: The relative viability was 0.426.

Q: And the relative viability ([6]; first compound 0.04 µM)?
A: The relative viability was 0.604.

Q: And the relative viability ([6]; first compound 0.1265 µM)?
A: The relative viability was 0.57.

Q: And the relative viability ([6]; first compound 0.4 µM)?
A: Its relative viability is 0.694.

Q: And the relative viability ([6]; first compound 1.265 µM)?
A: Its relative viability is 0.809.

Q: And the relative viability ([6]; first compound 4 µM)?
A: The relative viability was 0.663.

Q: What about the relative viability ([7]; first compound 0.04 µM) of the same compound?
A: Its relative viability is 0.355.

Q: What about the relative viability ([7]; first compound 0.1265 µM) of the same compound?
A: The relative viability was 0.335.

Q: And the relative viability ([7]; first compound 0.4 µM)?
A: Its relative viability is 0.361.

Q: What about the relative viability ([7]; first compound 1.265 µM) of the same compound?
A: The relative viability was 0.198.

Q: And the relative viability ([7]; first compound 4 µM)?
A: The relative viability was 0.161.

Q: What about the relative viability ([8]; first compound 0.04 µM) of the same compound?
A: Its relative viability is 0.728.

Q: What about the relative viability ([8]; first compound 0.1265 µM) of the same compound?
A: The relative viability was 0.778.

Q: What about the relative viability ([8]; first compound 0.4 µM) of the same compound?
A: Its relative viability is 0.681.

Q: What about the relative viability ([8]; first compound 1.265 µM) of the same compound?
A: The relative viability was 0.388.

Q: What about the relative viability ([8]; first compound 4 µM) of the same compound?
A: Its relative viability is 0.289.

Q: What about the relative viability ([9]; first compound 0.04 µM) of the same compound?
A: The relative viability was 0.503.

Q: And the relative viability ([9]; first compound 0.1265 µM)?
A: Its relative viability is 0.271.

Q: And the relative viability ([9]; first compound 0.4 µM)?
A: The relative viability was 0.123.

Q: And the relative viability ([9]; first compound 1.265 µM)?
A: The relative viability was 0.0422.

Q: What about the relative viability ([9]; first compound 4 µM) of the same compound?
A: The relative viability was 0.041.

Q: What about the relative viability ([10]; first compound 0.04 µM) of the same compound?
A: Its relative viability is 0.554.

Q: What about the relative viability ([10]; first compound 0.1265 µM) of the same compound?
A: The relative viability was 0.285.

Q: And the relative viability ([10]; first compound 0.4 µM)?
A: The relative viability was 0.372.

Q: And the relative viability ([10]; first compound 1.265 µM)?
A: Its relative viability is 0.253.

Q: And the relative viability ([10]; first compound 4 µM)?
A: The relative viability was 0.17.

Q: And the relative viability ([11]; first compound 0.04 µM)?
A: Its relative viability is 0.607.

Q: What about the relative viability ([11]; first compound 0.1265 µM) of the same compound?
A: Its relative viability is 0.386.

Q: And the relative viability ([11]; first compound 0.4 µM)?
A: The relative viability was 0.458.

Q: What about the relative viability ([11]; first compound 1.265 µM) of the same compound?
A: The relative viability was 0.171.

Q: And the relative viability ([11]; first compound 4 µM)?
A: The relative viability was 0.136.
